Measurements published in publication PMC6437697 (Journal of Medicinal Chemistry, 2019).

Legend:
Assay in all cases: KINOMEscan
Assay type in all cases: binding
Details in all cases: read-out: % control activity remaining
[1] = molecular target: T1, JNK2 (Homo sapiens, UniProt P45984)
T1 construct: purchased Eurofins DiscoverX KINOMEscan

[2] = molecular target: T2, TXK (Homo sapiens, UniProt P42681)
T2 construct: purchased Eurofins DiscoverX KINOMEscan
T2 sequence (P42681 1-527): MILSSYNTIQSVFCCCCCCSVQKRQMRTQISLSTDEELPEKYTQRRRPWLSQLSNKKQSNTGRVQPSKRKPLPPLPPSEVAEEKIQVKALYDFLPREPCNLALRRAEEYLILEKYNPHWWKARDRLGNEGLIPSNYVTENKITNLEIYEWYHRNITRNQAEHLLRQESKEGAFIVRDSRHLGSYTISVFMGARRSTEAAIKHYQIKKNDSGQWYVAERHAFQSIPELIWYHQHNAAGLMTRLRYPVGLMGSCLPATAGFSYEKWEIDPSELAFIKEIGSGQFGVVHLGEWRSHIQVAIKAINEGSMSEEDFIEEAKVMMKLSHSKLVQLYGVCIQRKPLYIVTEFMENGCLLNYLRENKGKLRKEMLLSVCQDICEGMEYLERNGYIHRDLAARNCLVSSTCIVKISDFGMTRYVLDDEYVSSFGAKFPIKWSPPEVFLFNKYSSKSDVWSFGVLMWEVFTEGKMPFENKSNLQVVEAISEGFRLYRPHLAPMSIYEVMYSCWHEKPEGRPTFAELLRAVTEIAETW

[3] = molecular target: T3, ABL1-phosphorylated (Homo sapiens, UniProt P00519)
T3 construct: purchased Eurofins DiscoverX KINOMEscan
T3 sequence (P00519 whole entry): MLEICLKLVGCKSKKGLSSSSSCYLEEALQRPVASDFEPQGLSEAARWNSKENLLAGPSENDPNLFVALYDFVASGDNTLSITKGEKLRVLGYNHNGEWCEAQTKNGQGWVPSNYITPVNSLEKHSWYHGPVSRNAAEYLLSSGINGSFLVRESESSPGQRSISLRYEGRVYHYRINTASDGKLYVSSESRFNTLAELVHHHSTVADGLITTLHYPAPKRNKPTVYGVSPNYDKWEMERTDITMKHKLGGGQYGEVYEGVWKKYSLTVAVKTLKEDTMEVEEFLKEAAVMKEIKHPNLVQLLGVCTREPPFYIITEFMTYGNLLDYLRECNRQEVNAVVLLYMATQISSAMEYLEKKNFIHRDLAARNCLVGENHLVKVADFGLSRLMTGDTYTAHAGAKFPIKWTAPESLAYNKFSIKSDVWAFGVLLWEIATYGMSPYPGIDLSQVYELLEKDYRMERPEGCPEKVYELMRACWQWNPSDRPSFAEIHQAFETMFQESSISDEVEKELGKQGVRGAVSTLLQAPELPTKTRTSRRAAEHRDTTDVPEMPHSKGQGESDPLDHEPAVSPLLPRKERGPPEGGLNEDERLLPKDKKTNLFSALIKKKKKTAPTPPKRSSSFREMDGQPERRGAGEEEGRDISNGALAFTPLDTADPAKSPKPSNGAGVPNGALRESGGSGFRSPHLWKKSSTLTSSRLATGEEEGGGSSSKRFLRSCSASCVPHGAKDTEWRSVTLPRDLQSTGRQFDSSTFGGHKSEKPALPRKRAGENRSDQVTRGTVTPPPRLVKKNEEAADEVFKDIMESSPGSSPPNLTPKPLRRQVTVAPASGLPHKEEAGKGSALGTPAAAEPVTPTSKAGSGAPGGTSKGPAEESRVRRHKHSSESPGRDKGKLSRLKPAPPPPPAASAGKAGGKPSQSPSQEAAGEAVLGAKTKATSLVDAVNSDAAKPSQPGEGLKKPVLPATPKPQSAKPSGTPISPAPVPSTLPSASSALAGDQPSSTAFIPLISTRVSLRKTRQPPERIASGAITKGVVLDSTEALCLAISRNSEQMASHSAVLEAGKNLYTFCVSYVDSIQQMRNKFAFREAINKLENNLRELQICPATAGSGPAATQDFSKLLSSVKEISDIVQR

[4] = molecular target: T4, NEK6 (Homo sapiens, UniProt Q9HC98)
T4 construct: purchased Eurofins DiscoverX KINOMEscan
T4 sequence (Q9HC98 whole entry): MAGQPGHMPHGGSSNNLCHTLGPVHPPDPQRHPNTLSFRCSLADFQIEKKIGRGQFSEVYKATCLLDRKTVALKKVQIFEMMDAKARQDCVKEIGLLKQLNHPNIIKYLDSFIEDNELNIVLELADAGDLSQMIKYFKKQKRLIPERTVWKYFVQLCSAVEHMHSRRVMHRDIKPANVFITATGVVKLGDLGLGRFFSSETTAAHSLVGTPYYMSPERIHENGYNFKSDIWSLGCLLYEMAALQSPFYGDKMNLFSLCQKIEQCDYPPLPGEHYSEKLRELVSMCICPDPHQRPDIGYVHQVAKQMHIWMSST

[5] = molecular target: T5, FLT3(R834Q) (Homo sapiens, UniProt P36888, R834Q)
T5 construct: purchased Eurofins DiscoverX KINOMEscan
T5 sequence (P36888 27-993 R834Q): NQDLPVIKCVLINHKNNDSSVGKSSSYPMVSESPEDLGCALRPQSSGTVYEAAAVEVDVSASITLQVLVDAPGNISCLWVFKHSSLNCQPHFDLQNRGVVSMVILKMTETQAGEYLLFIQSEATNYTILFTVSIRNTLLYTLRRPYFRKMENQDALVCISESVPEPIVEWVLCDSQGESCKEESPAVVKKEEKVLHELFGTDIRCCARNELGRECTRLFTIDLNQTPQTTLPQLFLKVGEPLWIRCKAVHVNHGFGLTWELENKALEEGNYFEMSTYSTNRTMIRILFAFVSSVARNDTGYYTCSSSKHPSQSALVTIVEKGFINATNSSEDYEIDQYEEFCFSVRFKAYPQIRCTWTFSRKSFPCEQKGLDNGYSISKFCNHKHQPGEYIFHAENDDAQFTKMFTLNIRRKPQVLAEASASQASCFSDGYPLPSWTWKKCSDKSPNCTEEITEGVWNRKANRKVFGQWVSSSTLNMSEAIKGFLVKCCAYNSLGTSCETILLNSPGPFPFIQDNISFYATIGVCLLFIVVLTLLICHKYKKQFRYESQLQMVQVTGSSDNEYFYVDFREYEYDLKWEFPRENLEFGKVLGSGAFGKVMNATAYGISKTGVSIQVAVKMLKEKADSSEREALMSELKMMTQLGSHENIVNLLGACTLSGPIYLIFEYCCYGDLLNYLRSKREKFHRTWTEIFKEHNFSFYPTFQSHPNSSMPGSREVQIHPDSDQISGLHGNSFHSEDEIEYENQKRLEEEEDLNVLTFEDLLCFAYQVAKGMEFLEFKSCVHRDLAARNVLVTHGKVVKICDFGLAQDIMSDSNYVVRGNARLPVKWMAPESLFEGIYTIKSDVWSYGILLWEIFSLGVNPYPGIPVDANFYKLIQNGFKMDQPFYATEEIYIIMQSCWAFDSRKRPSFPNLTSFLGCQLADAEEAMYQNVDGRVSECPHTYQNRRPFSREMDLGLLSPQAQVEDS

[6] = molecular target: T6, MET (Homo sapiens, UniProt P08581)
T6 construct: purchased Eurofins DiscoverX KINOMEscan
T6 sequence (P08581 25-1390): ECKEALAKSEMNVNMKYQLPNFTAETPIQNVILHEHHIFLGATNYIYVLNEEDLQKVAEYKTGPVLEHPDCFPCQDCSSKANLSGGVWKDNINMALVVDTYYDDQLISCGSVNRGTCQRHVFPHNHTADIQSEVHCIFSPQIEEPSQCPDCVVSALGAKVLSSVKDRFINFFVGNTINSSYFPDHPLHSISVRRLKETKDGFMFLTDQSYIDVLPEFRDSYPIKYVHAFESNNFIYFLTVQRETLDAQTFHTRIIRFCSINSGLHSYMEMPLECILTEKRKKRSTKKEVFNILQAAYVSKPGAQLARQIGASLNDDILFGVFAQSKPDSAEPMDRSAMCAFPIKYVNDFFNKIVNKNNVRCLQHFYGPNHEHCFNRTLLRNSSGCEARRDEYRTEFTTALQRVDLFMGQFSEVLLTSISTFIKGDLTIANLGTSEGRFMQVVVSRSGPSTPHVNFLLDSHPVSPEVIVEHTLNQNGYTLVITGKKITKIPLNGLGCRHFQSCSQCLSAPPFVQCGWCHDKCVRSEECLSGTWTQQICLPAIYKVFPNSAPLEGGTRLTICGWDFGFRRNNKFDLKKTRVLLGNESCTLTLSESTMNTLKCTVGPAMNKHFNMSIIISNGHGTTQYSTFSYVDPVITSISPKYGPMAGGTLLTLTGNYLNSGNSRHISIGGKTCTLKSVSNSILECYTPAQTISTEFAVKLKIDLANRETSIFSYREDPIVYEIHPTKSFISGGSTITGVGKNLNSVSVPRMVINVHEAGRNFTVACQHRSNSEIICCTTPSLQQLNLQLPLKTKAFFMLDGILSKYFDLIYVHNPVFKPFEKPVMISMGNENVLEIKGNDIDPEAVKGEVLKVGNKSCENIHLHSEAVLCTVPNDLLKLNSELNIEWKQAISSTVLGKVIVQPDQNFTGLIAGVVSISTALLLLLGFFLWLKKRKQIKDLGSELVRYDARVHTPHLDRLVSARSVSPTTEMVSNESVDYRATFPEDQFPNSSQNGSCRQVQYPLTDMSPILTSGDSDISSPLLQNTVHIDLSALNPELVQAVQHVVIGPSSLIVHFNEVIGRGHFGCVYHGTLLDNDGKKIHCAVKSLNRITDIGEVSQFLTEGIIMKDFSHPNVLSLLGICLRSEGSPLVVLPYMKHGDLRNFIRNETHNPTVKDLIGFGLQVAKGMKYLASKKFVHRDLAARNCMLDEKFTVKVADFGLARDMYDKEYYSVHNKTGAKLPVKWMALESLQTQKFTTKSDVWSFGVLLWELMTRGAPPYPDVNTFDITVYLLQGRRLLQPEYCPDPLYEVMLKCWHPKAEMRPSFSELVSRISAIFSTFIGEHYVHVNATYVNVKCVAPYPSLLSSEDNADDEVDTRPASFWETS

[7] = molecular target: T7, TAOK2 (Homo sapiens, UniProt Q9UL54)
T7 construct: purchased Eurofins DiscoverX KINOMEscan
T7 sequence (Q9UL54 1-1235): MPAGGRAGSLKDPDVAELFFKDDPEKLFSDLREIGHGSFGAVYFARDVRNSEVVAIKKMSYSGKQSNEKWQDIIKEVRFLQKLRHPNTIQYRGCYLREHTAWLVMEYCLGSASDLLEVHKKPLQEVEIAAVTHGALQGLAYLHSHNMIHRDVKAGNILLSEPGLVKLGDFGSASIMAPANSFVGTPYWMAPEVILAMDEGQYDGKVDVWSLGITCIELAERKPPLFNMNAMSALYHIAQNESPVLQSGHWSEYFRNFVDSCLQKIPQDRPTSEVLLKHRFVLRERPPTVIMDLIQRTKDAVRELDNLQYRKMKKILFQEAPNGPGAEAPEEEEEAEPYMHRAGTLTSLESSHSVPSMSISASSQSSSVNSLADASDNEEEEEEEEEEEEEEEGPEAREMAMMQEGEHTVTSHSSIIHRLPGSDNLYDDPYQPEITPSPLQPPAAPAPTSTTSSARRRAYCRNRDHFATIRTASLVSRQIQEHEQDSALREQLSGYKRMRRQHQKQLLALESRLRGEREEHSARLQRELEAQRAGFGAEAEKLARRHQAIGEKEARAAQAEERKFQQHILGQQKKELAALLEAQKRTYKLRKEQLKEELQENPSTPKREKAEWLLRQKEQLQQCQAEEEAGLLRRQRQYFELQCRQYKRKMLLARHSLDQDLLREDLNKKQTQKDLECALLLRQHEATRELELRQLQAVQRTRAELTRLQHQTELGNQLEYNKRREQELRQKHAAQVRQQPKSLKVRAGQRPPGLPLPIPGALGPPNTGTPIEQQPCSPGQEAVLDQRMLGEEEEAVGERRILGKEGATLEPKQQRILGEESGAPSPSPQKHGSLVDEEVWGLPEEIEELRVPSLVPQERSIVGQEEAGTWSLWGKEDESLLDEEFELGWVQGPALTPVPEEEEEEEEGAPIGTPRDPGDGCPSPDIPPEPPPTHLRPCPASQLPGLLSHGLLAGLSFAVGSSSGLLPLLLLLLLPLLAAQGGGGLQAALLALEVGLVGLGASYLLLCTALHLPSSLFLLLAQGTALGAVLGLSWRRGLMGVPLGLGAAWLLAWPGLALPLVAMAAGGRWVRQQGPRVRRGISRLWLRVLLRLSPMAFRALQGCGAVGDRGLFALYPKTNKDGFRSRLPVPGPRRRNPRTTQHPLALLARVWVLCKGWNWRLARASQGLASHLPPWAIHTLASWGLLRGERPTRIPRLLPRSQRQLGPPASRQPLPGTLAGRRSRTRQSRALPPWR

T1 sequence (P45984 whole entry): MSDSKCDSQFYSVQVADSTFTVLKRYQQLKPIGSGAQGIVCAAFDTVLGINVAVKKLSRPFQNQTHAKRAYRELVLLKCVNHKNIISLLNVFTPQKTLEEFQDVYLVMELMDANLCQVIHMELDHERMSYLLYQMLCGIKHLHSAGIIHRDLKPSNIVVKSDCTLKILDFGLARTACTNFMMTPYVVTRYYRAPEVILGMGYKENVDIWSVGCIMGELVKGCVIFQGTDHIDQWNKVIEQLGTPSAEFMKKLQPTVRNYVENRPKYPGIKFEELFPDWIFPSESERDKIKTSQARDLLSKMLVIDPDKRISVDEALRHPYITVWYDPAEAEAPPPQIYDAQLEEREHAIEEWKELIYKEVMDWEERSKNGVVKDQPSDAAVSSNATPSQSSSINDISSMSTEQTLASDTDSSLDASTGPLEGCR

| Compound | remaining binding at 1 µM [1] [%] | remaining binding at 1 µM [2] [%] | remaining binding at 1 µM [3] [%] | remaining binding at 1 µM [4] [%] | remaining binding at 1 µM [5] [%] | remaining binding at 1 µM [6] [%] | remaining binding at 1 µM [7] [%] |
| --- | --- | --- | --- | --- | --- | --- | --- |
| CN1CCC(CNc2cc(Cl)nn3c(-c4cc5nc(Nc6ccccc6)[nH]c5cc4F)cnc23)CC1 [compound 31, 6-Chloro-3-(6-fluoro-2-(phenylamino)-1H-benzo[d]imidazol-5-yl)-N-((1-methylpiperidin-4-yl)methyl)imidazo[1,2-b]pyridazin-8-amine] | 75 | 93 | 81 | 96 | 100 | 97 | 98 |
| O=C(CN1CCOCC1)N[C@H]1CC[C@H](Nc2cc(Cl)nn3c(-c4ccc5[nH]ncc5c4)cnc23)CC1 [compound 26] | 80 | 88 | 54 | 100 | 0.7 | 100 | 100 |
| Clc1cc(NCC2CC2)c2ncc(-c3ccc4[nH]ncc4c3)n2n1 [compound 2, 6-Chloro-N-(cyclopropylmethyl)-3-(1H-indazol-5-yl)imidazo[1,2-b]pyridazin-8-amine] | 91 | 85 | 94 | 99 | 94 | 90 | 87 |
